Laboratory results reported in the supplement of paper PMC10307832.

What was measured:
Test in all cases: relative viability (nuclei count vs DMSO), 5 days (fraction); higher = more cells survive
Tozasertib = compound: Cc1cc(Nc2cc(N3CCN(C)CC3)nc(Sc3ccc(NC(=O)C4CC4)cc3)n2)n[nH]1 [Tozasertib]
Summary of the method: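 Nuclei counted with MetaXpress define viability as the ratio of treated to vehicle wells, given as a median across plates. The lung cancer cell lines were in 1536-well plates, pinned with five √10-spaced library-drug doses and imaged at 4× after 5 days and Hoechst staining. Plates passed with control CV below 25% and at least one doubling.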

Tozasertib + Vorinostat = compound: Cc1cc(Nc2cc(N3CCN(C)CC3)nc(Sc3ccc(NC(=O)C4CC4)cc3)n2)n[nH]1 [Tozasertib] + O=C(CCCCCCC(=O)Nc1ccccc1)NO [Vorinostat] (partner 1 µM)
Summary of the method: (§1)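 Five library-drug doses in √10 steps were combined with a fixed anchor-drug dose, or a single drug was given alone, by pin tool to lung cancer cell lines in 1536-well plates the day after seeding. Nuclei were stained and counted after 5 days. Relative viability is the nuclei count in treated wells over that in vehicle wells, taken as the median of duplicate plates.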

Tozasertib + Bortezomib = compound: Cc1cc(Nc2cc(N3CCN(C)CC3)nc(Sc3ccc(NC(=O)C4CC4)cc3)n2)n[nH]1 [Tozasertib] + CC(C)C[C@H](NC(=O)[C@H](Cc1ccccc1)NC(=O)c1cnccn1)B(O)O [Bortezomib] (partner 0.002 µM)
Summary of the method: as §1

Tozasertib + Olaparib = compound: Cc1cc(Nc2cc(N3CCN(C)CC3)nc(Sc3ccc(NC(=O)C4CC4)cc3)n2)n[nH]1 [Tozasertib] + O=C(c1cc(Cc2n[nH]c(=O)c3ccccc23)ccc1F)N1CCN(C(=O)C2CC2)CC1 [Olaparib] (partner 8 µM)
Summary of the method: as §1

Tozasertib + Linsitinib = compound: Cc1cc(Nc2cc(N3CCN(C)CC3)nc(Sc3ccc(NC(=O)C4CC4)cc3)n2)n[nH]1 [Tozasertib] + C[C@]1(O)C[C@@H](c2nc(-c3ccc4ccc(-c5ccccc5)nc4c3)c3c(N)nccn32)C1 [Linsitinib] (partner 1 µM)
Summary of the method: as §1

Tozasertib + Crizotinib = compound: Cc1cc(Nc2cc(N3CCN(C)CC3)nc(Sc3ccc(NC(=O)C4CC4)cc3)n2)n[nH]1 [Tozasertib] + C[C@@H](Oc1cc(-c2cnn(C3CCNCC3)c2)cnc1N)c1c(Cl)ccc(F)c1Cl [Crizotinib] (partner 1 µM)
Summary of the method: as §1

Tozasertib + Alpelisib = compound: Cc1cc(Nc2cc(N3CCN(C)CC3)nc(Sc3ccc(NC(=O)C4CC4)cc3)n2)n[nH]1 [Tozasertib] + Cc1nc(NC(=O)N2CCC[C@H]2C(N)=O)sc1-c1ccnc(C(C)(C)C(F)(F)F)c1 [Alpelisib] (partner 2 µM)
Summary of the method: as §1

Tozasertib + Pictilisib = compound: Cc1cc(Nc2cc(N3CCN(C)CC3)nc(Sc3ccc(NC(=O)C4CC4)cc3)n2)n[nH]1 [Tozasertib] + CS(=O)(=O)N1CCN(Cc2cc3nc(-c4cccc5[nH]ncc45)nc(N4CCOCC4)c3s2)CC1 [Pictilisib] (partner 1 µM)
Summary of the method: as §1

Tozasertib + Lapatinib = compound: Cc1cc(Nc2cc(N3CCN(C)CC3)nc(Sc3ccc(NC(=O)C4CC4)cc3)n2)n[nH]1 [Tozasertib] + CS(=O)(=O)CCNCc1ccc(-c2ccc3ncnc(Nc4ccc(OCc5cccc(F)c5)c(Cl)c4)c3c2)o1 [Lapatinib] (partner 2 µM)
Summary of the method: as §1

Tozasertib + Navitoclax = compound: Cc1cc(Nc2cc(N3CCN(C)CC3)nc(Sc3ccc(NC(=O)C4CC4)cc3)n2)n[nH]1 [Tozasertib] + CC1(C)CCC(c2ccc(Cl)cc2)=C(CN2CCN(c3ccc(C(=O)NS(=O)(=O)c4ccc(N[C@H](CCN5CCOCC5)CSc5ccccc5)c(S(=O)(=O)C(F)(F)F)c4)cc3)CC2)C1 [Navitoclax] (partner 0.5 µM)
Summary of the method: as §1

Tozasertib + Foretinib = compound: Cc1cc(Nc2cc(N3CCN(C)CC3)nc(Sc3ccc(NC(=O)C4CC4)cc3)n2)n[nH]1 [Tozasertib] + COc1cc2c(Oc3ccc(NC(=O)C4(C(=O)Nc5ccc(F)cc5)CC4)cc3F)ccnc2cc1OCCCN1CCOCC1 [Foretinib] (partner 0.25 µM)
Summary of the method: as §1

Cell Line | relative viability (Tozasertib; 0.004 µM) | relative viability (Tozasertib; 0.01265 µM) | relative viability (Tozasertib; 0.04 µM) | relative viability (Tozasertib; 0.1265 µM) | relative viability (Tozasertib + Bortezomib; first compound 0.004 µM) | relative viability (Tozasertib + Bortezomib; first compound 0.1265 µM) | relative viability (Tozasertib + Olaparib; first compound 0.004 µM) | relative viability (Tozasertib + Olaparib; first compound 0.01265 µM) | relative viability (Tozasertib + Olaparib; first compound 0.04 µM) | relative viability (Tozasertib + Olaparib; first compound 0.1265 µM) | relative viability (Tozasertib + Linsitinib; first compound 0.004 µM) | relative viability (Tozasertib + Linsitinib; first compound 0.01265 µM) | relative viability (Tozasertib + Linsitinib; first compound 0.04 µM) | relative viability (Tozasertib + Linsitinib; first compound 0.1265 µM) | relative viability (Tozasertib + Crizotinib; first compound 0.004 µM) | relative viability (Tozasertib + Crizotinib; first compound 0.01265 µM) | relative viability (Tozasertib + Crizotinib; first compound 0.04 µM) | relative viability (Tozasertib + Crizotinib; first compound 0.1265 µM) | relative viability (Tozasertib + Alpelisib; first compound 0.004 µM) | relative viability (Tozasertib + Alpelisib; first compound 0.01265 µM) | other results
IA-LM | 1.06 | 0.819 | 0.954 | 0.795 | 0.794 | 0.849 | 0.976 | 0.909 | 0.779 | 0.814 | 0.697 | 0.564 | 0.533 | 0.307 | 0.784 | 1.05 | 0.817 | 0.851 | 0.715 | 0.753 | relative viability (Tozasertib + Vorinostat; first compound 0.04 µM): 0.855; relative viability (Tozasertib + Vorinostat; first compound 0.1265 µM): 0.854; relative viability (Tozasertib + Alpelisib; first compound 0.04 µM): 0.871; relative viability (Tozasertib + Alpelisib; first compound 0.1265 µM): 0.457; relative viability (Tozasertib + Pictilisib; first compound 0.004 µM): 0.336; relative viability (Tozasertib + Pictilisib; first compound 0.01265 µM): 0.302; relative viability (Tozasertib + Pictilisib; first compound 0.04 µM): 0.457; relative viability (Tozasertib + Pictilisib; first compound 0.1265 µM): 0.265; relative viability (Tozasertib + Lapatinib; first compound 0.004 µM): 0.967; relative viability (Tozasertib + Lapatinib; first compound 0.01265 µM): 0.838; relative viability (Tozasertib + Lapatinib; first compound 0.04 µM): 1.13; relative viability (Tozasertib + Lapatinib; first compound 0.1265 µM): 0.479; relative viability (Tozasertib + Navitoclax; first compound 0.004 µM): 0.969; relative viability (Tozasertib + Navitoclax; first compound 0.01265 µM): 0.784; relative viability (Tozasertib + Navitoclax; first compound 0.04 µM): 0.767; relative viability (Tozasertib + Navitoclax; first compound 0.1265 µM): 0.797; relative viability (Tozasertib + Foretinib; first compound 0.004 µM): 1.38; relative viability (Tozasertib + Foretinib; first compound 0.01265 µM): 1.18; relative viability (Tozasertib + Foretinib; first compound 0.04 µM): 1.11; relative viability (Tozasertib + Foretinib; first compound 0.1265 µM): 0.914
NCI-H1299 | 1.04 | 1.02 | 1.01 | 1.02 | 1.07 | 1.03 | 0.982 | 0.939 | 0.943 | 0.961 | 0.952 | 0.979 | 0.988 | 0.597 | 0.998 | 0.996 | 0.952 | 0.761 | 1.08 | 1.13 | relative viability (Tozasertib + Bortezomib; first compound 0.01265 µM): 1.01; relative viability (Tozasertib + Bortezomib; first compound 0.04 µM): 1.02; relative viability (Tozasertib + Alpelisib; first compound 0.04 µM): 1.04; relative viability (Tozasertib + Alpelisib; first compound 0.1265 µM): 1.05; relative viability (Tozasertib + Pictilisib; first compound 0.004 µM): 0.951; relative viability (Tozasertib + Pictilisib; first compound 0.01265 µM): 0.808; relative viability (Tozasertib + Pictilisib; first compound 0.04 µM): 0.75; relative viability (Tozasertib + Pictilisib; first compound 0.1265 µM): 0.615; relative viability (Tozasertib + Lapatinib; first compound 0.004 µM): 1.03; relative viability (Tozasertib + Lapatinib; first compound 0.01265 µM): 0.947; relative viability (Tozasertib + Lapatinib; first compound 0.1265 µM): 0.703; relative viability (Tozasertib + Navitoclax; first compound 0.004 µM): 1.1; relative viability (Tozasertib + Navitoclax; first compound 0.01265 µM): 1.04; relative viability (Tozasertib + Navitoclax; first compound 0.04 µM): 1.06; relative viability (Tozasertib + Navitoclax; first compound 0.1265 µM): 1.07; relative viability (Tozasertib + Foretinib; first compound 0.004 µM): 1.17; relative viability (Tozasertib + Foretinib; first compound 0.01265 µM): 1.07; relative viability (Tozasertib + Foretinib; first compound 0.04 µM): 1.08; relative viability (Tozasertib + Foretinib; first compound 0.1265 µM): 0.499
